Experimental data taken from the NIST ThermoML archive (doi:10.1016/j.jct.2017.01.006).
± gives the expanded uncertainty stated by the source.

Test: Molar enthalpy of transition or fusion
Conditions: Crystal; DSC

Molar enthalpy of transition or fusion: 3.92 ± 0.21 kcal/mol
Structure (SMILES): Nc1ccc(N)c([N+](=O)[O-])c1 [2-nitro-1,4-benzenediamine]
